# Laboratory results taken from ChEMBL document CHEMBL1201862, “PubChem BioAssay data set” (2004).
#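 Assay format: 96-well plates, 48-hour exposure. Here, GI50 denotes the concentration required for 50% inhibition of growth.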 The source made the active and inactive calls. No stated cut-off is given here; in the data, active = GI50 up to about 1.1 µM and inactive = higher.
# Legend:
# Experiment in all cases: NCI anticancer screen, dose series, 48 h
# SK-MEL-28 = test system: SK-MEL-28
# MDA-MB-231 = test system: MDA-MB-231
# UACC-62 = test system: UACC-62
# A498 = test system: A498
# COLO 205 = test system: COLO 205
# NCI-H522 = test system: NCI-H522
# SF-295 = test system: SF-295
# HCT-15 = test system: HCT-15
# MOLT-4 = test system: MOLT-4
# OVCAR-8 = test system: OVCAR-8
# ACHN = test system: ACHN
# UACC-257 = test system: UACC-257
# T47D = test system: T47D
# SNB-19 = test system: SNB-19
# CCRF-CEM = test system: CCRF-CEM
# CAKI-1 = test system: CAKI-1
# OVCAR-4 = test system: OVCAR-4
# K562 = test system: K562
# KM12 = test system: KM12
# SF-268 = test system: SF-268
SMILES,GI50 (SK-MEL-28),GI50 (MDA-MB-231),GI50 (UACC-62),GI50 (A498),GI50 (COLO 205),GI50 (NCI-H522),GI50 (SF-295),GI50 (HCT-15) [µM],GI50 (MOLT-4),GI50 (OVCAR-8),GI50 (ACHN),GI50 (UACC-257),GI50 (T47D),GI50 (SNB-19),GI50 (CCRF-CEM),GI50 (CAKI-1),GI50 (OVCAR-4),GI50 (K562),GI50 (KM12),GI50 (SF-268)
Cc1nc2ccccc2n1Cc1ccc(NC(=S)NC2CCCCC2)cc1,29.7 µM (inactive),38.1 µM (inactive),6.3 µM (inactive),33.6 µM (inactive),31.1 µM (inactive),8.34 µM (inactive),10.1 µM (inactive),8.95,5.36 µM (inactive),30.9 µM (inactive),4.49 µM (inactive),13.5 µM (inactive),5.74 µM (inactive),32.8 µM (inactive),10 µM (inactive),38 µM (inactive),10.1 µM (inactive),14.7 µM (inactive),24.3 µM (inactive),17.2 µM (inactive)
COC(=O)c1c(CC(Cc2ccc3c(c2)CCCC3)C(=O)O)ccc2c1CCCC2 (stereo not given),34.7 µM (inactive),27.9 µM (inactive),22.4 µM (inactive),25 µM (inactive),18.3 µM (inactive),11.6 µM (inactive),32.6 µM (inactive),18,37.1 µM (inactive),36.2 µM (inactive),34 µM (inactive),16 µM (inactive),33.4 µM (inactive),40.7 µM (inactive),45.4 µM (inactive),36 µM (inactive),34.5 µM (inactive),34.7 µM (inactive),27.4 µM (inactive),37.1 µM (inactive)
O=C1c2c(O)cccc2C(C(=O)CCCC(=O)C2c3cccc(O)c3C(=O)c3c(O)cccc32)c2cccc(O)c21,0.538 µM (active),0.0822 µM (active),0.327 µM (active),0.957 µM (active),0.34 µM (active),0.158 µM (active),0.243 µM (active),0.259,0.966 µM (active),0.492 µM (active),0.378 µM (active),0.191 µM (active),0.279 µM (active),0.29 µM (active),0.202 µM (active),1.27 µM (inactive),0.0867 µM (active),0.11 µM (active),0.242 µM (active),0.248 µM (active)
C[C@H](NC(=O)c1ccc(CNC(=O)/C=C/c2cccc(Oc3ccccc3)c2)cc1)c1ccccc1,80.9 µM (inactive),> 100 µM (inactive),> 100 µM (inactive),73.6 µM (inactive),> 100 µM (inactive),> 100 µM (inactive),40.8 µM (inactive),> 100,93.3 µM (inactive),> 100 µM (inactive),57.9 µM (inactive),> 100 µM (inactive),98.2 µM (inactive),37.8 µM (inactive),> 100 µM (inactive),22.6 µM (inactive),83.2 µM (inactive),> 100 µM (inactive),> 100 µM (inactive),> 100 µM (inactive)
CCOC(=O)C(Cc1cccn1C(=O)OC(C)(C)C)[N+](=O)[O-] (stereo not given),27.4 µM (inactive),19 µM (inactive),21.5 µM (inactive),23.5 µM (inactive),20.8 µM (inactive),19.6 µM (inactive),30.6 µM (inactive),24.3,20 µM (inactive),31.7 µM (inactive),22.3 µM (inactive),28.3 µM (inactive),33.4 µM (inactive),25.2 µM (inactive),17.1 µM (inactive),24.7 µM (inactive),28.6 µM (inactive),24.7 µM (inactive),22.8 µM (inactive),33.9 µM (inactive)
CCCCCCCCCCCCCCCCS(=O)(=O)c1ccc(NN)cc1,> 10 µM (inactive),> 10 µM (inactive),> 10 µM (inactive),> 10 µM (inactive),> 10 µM (inactive),5.9 µM (inactive),> 10 µM (inactive),> 10,6.43 µM (inactive),6.53 µM (inactive),> 10 µM (inactive),> 10 µM (inactive),> 10 µM (inactive),> 10 µM (inactive),1.63 µM (inactive),> 10 µM (inactive),8.17 µM (inactive),2.71 µM (inactive),> 10 µM (inactive),9.38 µM (inactive)
CC(C)C(/C=C/c1ccccc1)=N\NC(=S)NN,> 100 µM (inactive),> 100 µM (inactive),35.3 µM (inactive),> 100 µM (inactive),55.1 µM (inactive),16.7 µM (inactive),67.6 µM (inactive),31.6,12.7 µM (inactive),45.2 µM (inactive),40.6 µM (inactive),> 100 µM (inactive),47 µM (inactive),> 100 µM (inactive),3.93 µM (inactive),39.4 µM (inactive),50.5 µM (inactive),24 µM (inactive),> 86.1 µM (inactive),20.7 µM (inactive)
